Source: ChEMBL document CHEMBL2062480, “Semi-synthesis and anti-tumor evaluation of novel 25-hydroxyprotopanaxadiol derivatives” (Eur J Med Chem, 2012)

Legend:
LoVo = experiment: Antiproliferative activity against human LoVo cells after 48 hrs by MTT assay; type: functional, cell-based
[1] = Antiproliferative activity against human IOSE-144 cells after 48 hrs by MTT assay; type: cell-based; settings: IOSE-144, 48 h
A549 = experiment: Antiproliferative activity against human A549 cells after 48 hrs by MTT assay; type: functional, cell-based; settings: A549, 48 h
MCF7 [2] = experiment: Antiproliferative activity against human MCF7 cells after 48 hrs by MTT assay; type: functional, cell-based; settings: for IC50: MCF7, 48 h
MCF7 [3] = experiment: Antiproliferative activity against human MCF7 cells assessed as cell viability at 30 uM after 48 hrs by MTT assay; type: functional; settings: MCF7, 48 h, read-out: Activity

| SMILES | IC50 (LoVo) [µM] | IC50 [1] [µM] | IC50 (A549) [µM] | IC50 (MCF7 [2]) [µM] | viability at 30 µM (MCF7 [3]) [%] | Activity (MCF7 [2]) |
| --- | --- | --- | --- | --- | --- | --- |
| CCCCC(=O)O[C@H]1CC[C@]2(C)[C@H]3C[C@@H](O)[C@@H]4[C@@H]([C@](C)(O)CCCC(C)(C)O)CC[C@@]4(C)[C@]3(C)CC[C@H]2C1(C)C | > 50 | > 100 | > 50 | > 50 | – | – |
| CCCC(=O)O[C@@H]1C[C@@H]2[C@@]3(C)CC[C@H](O)C(C)(C)[C@@H]3CC[C@@]2(C)[C@]2(C)CC[C@H]([C@](C)(O)CCCC(C)(C)O)[C@@H]12 | 38.3 | > 100 | 25.5 | 32.8 | 28.5 | – |
| CC(=O)O[C@@H]1C[C@@H]2[C@@]3(C)CC[C@H](O)C(C)(C)[C@@H]3CC[C@@]2(C)[C@]2(C)CC[C@H]([C@](C)(O)CCCC(C)(C)O)[C@@H]12 | 37.5 | > 100 | 10.4 | 15.1 | 13.2 | – |
| CC(=O)O[C@H]1CC[C@]2(C)[C@H]3C[C@@H](O)[C@@H]4[C@@H]([C@](C)(O)CCCC(C)(C)O)CC[C@@]4(C)[C@]3(C)CC[C@H]2C1(C)C | > 50 | > 100 | 15.7 | 15.2 | – | Dose-dependent effect |
| CC(C)(O)CCC[C@@](C)(O)[C@H]1CC[C@]2(C)[C@@H]1[C@H](OC=O)C[C@@H]1[C@@]3(C)CC[C@H](O)C(C)(C)[C@@H]3CC[C@]12C | 49.6 | > 100 | 15.9 | 11.6 | 15.1 | – |
| CCC(=O)O[C@H]1CC[C@]2(C)[C@H]3C[C@@H](OC(=O)CC)[C@@H]4[C@@H]([C@](C)(O)CCCC(C)(C)O)CC[C@@]4(C)[C@]3(C)CC[C@H]2C1(C)C | 45.3 | > 100 | 14.9 | 20.6 | – | – |
| CCCCCCCCCCCCCC(=O)O[C@H]1CC[C@]2(C)[C@H]3C[C@@H](O)[C@@H]4[C@@H]([C@](C)(O)CCCC(C)(C)O)CC[C@@]4(C)[C@]3(C)CC[C@H]2C1(C)C | > 100 | > 100 | > 100 | > 100 | – | – |
| CCCCCCCCCCCCCCCC(=O)O[C@@H]1C[C@@H]2[C@@]3(C)CC[C@H](O)C(C)(C)[C@@H]3CC[C@@]2(C)[C@]2(C)CC[C@H]([C@](C)(O)CCCC(C)(C)O)[C@@H]12 | > 100 | > 100 | > 50 | > 50 | – | – |
| CCCCCCCC/C=C\CCCCCCCC(=O)O[C@H]1CC[C@]2(C)[C@H]3C[C@@H](O)[C@@H]4[C@@H]([C@](C)(O)CCCC(C)(C)O)CC[C@@]4(C)[C@]3(C)CC[C@H]2C1(C)C | > 100 | > 100 | > 100 | > 100 | – | – |
| CC(C)(O)CCC[C@@](C)(O)[C@H]1CC[C@]2(C)[C@@H]1[C@H](OC=O)C[C@@H]1[C@@]3(C)CC[C@H](OC=O)C(C)(C)[C@@H]3CC[C@]12C | 49.5 | > 100 | 12.5 | 1.1 | 10.6 | – |
| CCCCCCCCC(=O)O[C@H]1CC[C@]2(C)[C@H]3C[C@@H](O)[C@@H]4[C@@H]([C@](C)(O)CCCC(C)(C)O)CC[C@@]4(C)[C@]3(C)CC[C@H]2C1(C)C | > 50 | > 100 | > 50 | > 50 | – | – |
| CCCCCCCCCC(=O)O[C@@H]1C[C@@H]2[C@@]3(C)CC[C@H](O)C(C)(C)[C@@H]3CC[C@@]2(C)[C@]2(C)CC[C@H]([C@](C)(O)CCCC(C)(C)O)[C@@H]12 | > 50 | > 100 | 29.6 | 26.2 | – | – |
| CCC(=O)O[C@@H]1C[C@@H]2[C@@]3(C)CC[C@H](O)C(C)(C)[C@@H]3CC[C@@]2(C)[C@]2(C)CC[C@H]([C@](C)(O)CCCC(C)(C)O)[C@@H]12 | 40.3 | > 100 | 17.7 | 10.4 | 17.1 | – |
| CCCCCCCCCCCCCCCCCC(=O)O[C@@H]1C[C@@H]2[C@@]3(C)CC[C@H](O)C(C)(C)[C@@H]3CC[C@@]2(C)[C@]2(C)CC[C@H]([C@](C)(O)CCCC(C)(C)O)[C@@H]12 | > 100 | > 100 | > 100 | > 100 | – | – |
| CCCCCCCCCCCCCCCCCC(=O)O[C@H]1CC[C@]2(C)[C@H]3C[C@@H](O)[C@@H]4[C@@H]([C@](C)(O)CCCC(C)(C)O)CC[C@@]4(C)[C@]3(C)CC[C@H]2C1(C)C | > 100 | > 100 | > 100 | > 100 | – | – |
| CCCCCCC(=O)O[C@H]1CC[C@]2(C)[C@H]3C[C@@H](O)[C@@H]4[C@@H]([C@](C)(O)CCCC(C)(C)O)CC[C@@]4(C)[C@]3(C)CC[C@H]2C1(C)C | > 50 | > 100 | 16.8 | 33.7 | – | – |

| SMILES | IC50 (LoVo) [µM] | IC50 [1] [µM] | IC50 (A549) [µM] | IC50 (MCF7 [2]) [µM] | viability at 30 µM (MCF7 [3]) [%] | Activity (MCF7 [2]) |
| --- | --- | --- | --- | --- | --- | --- |
| CCCCCCCCCCCC(=O)O[C@H]1CC[C@]2(C)[C@H]3C[C@@H](O)[C@@H]4[C@@H]([C@](C)(O)CCCC(C)(C)O)CC[C@@]4(C)[C@]3(C)CC[C@H]2C1(C)C | > 100 | > 100 | > 100 | > 100 | – | – |
| CCCC(=O)O[C@H]1CC[C@]2(C)[C@H]3C[C@@H](O)[C@@H]4[C@@H]([C@](C)(O)CCCC(C)(C)O)CC[C@@]4(C)[C@]3(C)CC[C@H]2C1(C)C | > 50 | > 100 | 35.5 | 42.8 | – | – |
| CCCCCCC(=O)O[C@@H]1C[C@@H]2[C@@]3(C)CC[C@H](O)C(C)(C)[C@@H]3CC[C@@]2(C)[C@]2(C)CC[C@H]([C@](C)(O)CCCC(C)(C)O)[C@@H]12 | 48.1 | > 100 | 16.5 | 16.3 | – | – |
| CCCCCCCCCCCCCC(=O)O[C@@H]1C[C@@H]2[C@@]3(C)CC[C@H](O)C(C)(C)[C@@H]3CC[C@@]2(C)[C@]2(C)CC[C@H]([C@](C)(O)CCCC(C)(C)O)[C@@H]12 | > 100 | > 100 | > 100 | > 100 | – | – |
| CC(=O)O[C@H]1CC[C@]2(C)[C@H]3C[C@@H](OC(C)=O)[C@@H]4[C@@H]([C@](C)(O)CCCC(C)(C)O)CC[C@@]4(C)[C@]3(C)CC[C@H]2C1(C)C | 43.4 | > 100 | 14.8 | 25.3 | – | – |
| CCCCCCCCCCCC(=O)O[C@@H]1C[C@@H]2[C@@]3(C)CC[C@H](O)C(C)(C)[C@@H]3CC[C@@]2(C)[C@]2(C)CC[C@H]([C@](C)(O)CCCC(C)(C)O)[C@@H]12 | > 50 | > 100 | > 100 | > 100 | – | – |
| O=c1[nH]cc(F)c(=O)[nH]1 [FLUOROURACIL] | 3.3 | 25.6 | 12.8 | 16.2 | 42.5 | – |
| CCCCCCCCCC(=O)O[C@H]1CC[C@]2(C)[C@H]3C[C@@H](O)[C@@H]4[C@@H]([C@](C)(O)CCCC(C)(C)O)CC[C@@]4(C)[C@]3(C)CC[C@H]2C1(C)C | > 50 | > 100 | > 100 | > 100 | – | – |
| CCCCCCCC/C=C\CCCCCCCC(=O)O[C@@H]1C[C@@H]2[C@@]3(C)CC[C@H](O)C(C)(C)[C@@H]3CC[C@@]2(C)[C@]2(C)CC[C@H]([C@](C)(O)CCCC(C)(C)O)[C@@H]12 | > 100 | > 100 | > 100 | > 100 | – | – |
| CCCCC(=O)O[C@H]1CC[C@]2(C)[C@H]3C[C@@H](OC(=O)CCCC)[C@@H]4[C@@H]([C@](C)(O)CCCC(C)(C)O)CC[C@@]4(C)[C@]3(C)CC[C@H]2C1(C)C | > 50 | > 100 | 49.9 | > 50 | – | – |
| CC(C)(O)CCC[C@@](C)(O)[C@H]1CC[C@]2(C)[C@@H]1[C@H](O)C[C@@H]1[C@@]3(C)CC[C@H](O)C(C)(C)[C@@H]3CC[C@]12C | 45.2 | > 100 | 34.2 | 48.9 | 66.3 | – |
| CC(C)(O)CCC[C@@](C)(O)[C@H]1CC[C@]2(C)[C@@H]1[C@H](O)C[C@@H]1[C@@]3(C)CC[C@H](OC=O)C(C)(C)[C@@H]3CC[C@]12C | > 50 | > 100 | 39.2 | 11.5 | – | Dose-dependent effect |
| CCCCCC(=O)O[C@H]1CC[C@]2(C)[C@H]3C[C@@H](O)[C@@H]4[C@@H]([C@](C)(O)CCCC(C)(C)O)CC[C@@]4(C)[C@]3(C)CC[C@H]2C1(C)C | > 50 | > 100 | 26.2 | > 50 | – | – |
| CCCCCCCC(=O)O[C@H]1CC[C@]2(C)[C@H]3C[C@@H](O)[C@@H]4[C@@H]([C@](C)(O)CCCC(C)(C)O)CC[C@@]4(C)[C@]3(C)CC[C@H]2C1(C)C | > 50 | > 100 | 46.7 | > 100 | – | – |
| CCC(=O)O[C@H]1CC[C@]2(C)[C@H]3C[C@@H](O)[C@@H]4[C@@H]([C@](C)(O)CCCC(C)(C)O)CC[C@@]4(C)[C@]3(C)CC[C@H]2C1(C)C | > 50 | > 100 | 43.6 | 12.5 | – | Dose-dependent effect |
| CCCCCCCCCCCCCCCC(=O)O[C@H]1CC[C@]2(C)[C@H]3C[C@@H](O)[C@@H]4[C@@H]([C@](C)(O)CCCC(C)(C)O)CC[C@@]4(C)[C@]3(C)CC[C@H]2C1(C)C | > 100 | > 100 | > 100 | > 100 | – | – |
